Measured values reported in PMC7026418, “The kinase polypharmacology landscape of clinical PARP inhibitors” (Scientific Reports, 2020).
Like-named read-outs stand apart in the source and are kept apart here.

What was measured:
Experiment in all cases: biochemical
CDK4-cyclinD3 = CDK4-cyclinD3 (Homo sapiens, UniProt P11802); set-up: cyclinD3; DiscoveRx KINOMEscan active site-directed competition binding; percent of control kinase bound to immobilised ligand
CDK4-cyclinD1 = biological target: T1, CDK4-cyclinD1 (Homo sapiens, UniProt P11802); set-up: DiscoveRx KINOMEscan active site-directed competition binding; percent of control kinase bound to immobilised ligand
T1 construct: cyclinD1
T1 sequence (P11802 whole entry): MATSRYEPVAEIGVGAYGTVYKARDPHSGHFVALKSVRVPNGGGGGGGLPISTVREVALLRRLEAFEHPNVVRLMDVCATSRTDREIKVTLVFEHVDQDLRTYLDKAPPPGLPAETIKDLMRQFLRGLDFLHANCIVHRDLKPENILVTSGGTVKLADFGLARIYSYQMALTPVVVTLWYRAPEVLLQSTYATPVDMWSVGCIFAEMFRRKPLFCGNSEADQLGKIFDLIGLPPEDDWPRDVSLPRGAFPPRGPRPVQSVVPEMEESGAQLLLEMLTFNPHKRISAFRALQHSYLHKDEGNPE
T1 sequence (P24385 whole entry partner): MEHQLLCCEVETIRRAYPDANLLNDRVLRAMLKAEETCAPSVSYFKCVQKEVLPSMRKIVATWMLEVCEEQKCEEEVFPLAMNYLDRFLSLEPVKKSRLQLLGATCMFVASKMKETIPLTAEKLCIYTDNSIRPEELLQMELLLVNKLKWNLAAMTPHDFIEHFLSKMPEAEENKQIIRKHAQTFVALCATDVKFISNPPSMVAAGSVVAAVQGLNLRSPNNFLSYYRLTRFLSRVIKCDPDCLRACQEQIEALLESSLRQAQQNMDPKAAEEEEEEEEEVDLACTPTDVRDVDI

CSK = CSK (Homo sapiens, UniProt P41240); set-up: DiscoveRx KINOMEscan active site-directed competition binding; percent of control kinase bound to immobilised ligand
CSK, sequence (P41240 whole entry): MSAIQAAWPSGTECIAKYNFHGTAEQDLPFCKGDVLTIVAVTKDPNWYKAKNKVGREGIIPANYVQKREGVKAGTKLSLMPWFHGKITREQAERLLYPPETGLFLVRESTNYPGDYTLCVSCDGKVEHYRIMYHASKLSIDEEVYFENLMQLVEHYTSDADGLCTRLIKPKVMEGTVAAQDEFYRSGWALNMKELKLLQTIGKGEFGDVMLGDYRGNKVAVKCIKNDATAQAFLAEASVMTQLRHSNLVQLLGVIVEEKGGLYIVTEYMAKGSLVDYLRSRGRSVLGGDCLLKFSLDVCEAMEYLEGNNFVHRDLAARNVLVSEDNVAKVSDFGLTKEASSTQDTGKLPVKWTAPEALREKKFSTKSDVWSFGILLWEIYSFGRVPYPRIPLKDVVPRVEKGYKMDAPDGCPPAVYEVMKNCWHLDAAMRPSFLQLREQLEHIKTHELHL

AMPK-alpha2 = biological target: T2, AMPK-alpha2 (Homo sapiens, UniProt P54646); set-up: DiscoveRx KINOMEscan active site-directed competition binding; percent of control kinase bound to immobilised ligand
T2 construct: gene PRKAA2
T2 sequence (P54646 whole entry): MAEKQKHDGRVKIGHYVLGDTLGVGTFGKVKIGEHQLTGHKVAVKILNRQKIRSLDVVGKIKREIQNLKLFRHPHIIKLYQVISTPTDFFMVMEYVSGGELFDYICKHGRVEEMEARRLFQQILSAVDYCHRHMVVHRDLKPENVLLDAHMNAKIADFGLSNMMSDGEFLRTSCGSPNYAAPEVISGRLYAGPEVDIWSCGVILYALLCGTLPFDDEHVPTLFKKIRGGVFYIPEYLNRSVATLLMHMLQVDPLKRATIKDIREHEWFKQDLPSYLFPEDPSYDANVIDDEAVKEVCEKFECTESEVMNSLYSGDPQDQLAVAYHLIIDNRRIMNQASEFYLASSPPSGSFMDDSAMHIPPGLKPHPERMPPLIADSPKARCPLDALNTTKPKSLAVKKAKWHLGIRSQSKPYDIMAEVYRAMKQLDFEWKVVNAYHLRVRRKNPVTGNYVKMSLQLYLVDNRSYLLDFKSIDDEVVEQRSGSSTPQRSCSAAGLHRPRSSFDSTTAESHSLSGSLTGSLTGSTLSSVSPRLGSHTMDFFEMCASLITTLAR

BRSK1 = biological target: T3, BRSK1 (Homo sapiens, UniProt Q8TDC3); set-up: DiscoveRx KINOMEscan active site-directed competition binding; percent of control kinase bound to immobilised ligand
T3 sequence (Q8TDC3 1-778): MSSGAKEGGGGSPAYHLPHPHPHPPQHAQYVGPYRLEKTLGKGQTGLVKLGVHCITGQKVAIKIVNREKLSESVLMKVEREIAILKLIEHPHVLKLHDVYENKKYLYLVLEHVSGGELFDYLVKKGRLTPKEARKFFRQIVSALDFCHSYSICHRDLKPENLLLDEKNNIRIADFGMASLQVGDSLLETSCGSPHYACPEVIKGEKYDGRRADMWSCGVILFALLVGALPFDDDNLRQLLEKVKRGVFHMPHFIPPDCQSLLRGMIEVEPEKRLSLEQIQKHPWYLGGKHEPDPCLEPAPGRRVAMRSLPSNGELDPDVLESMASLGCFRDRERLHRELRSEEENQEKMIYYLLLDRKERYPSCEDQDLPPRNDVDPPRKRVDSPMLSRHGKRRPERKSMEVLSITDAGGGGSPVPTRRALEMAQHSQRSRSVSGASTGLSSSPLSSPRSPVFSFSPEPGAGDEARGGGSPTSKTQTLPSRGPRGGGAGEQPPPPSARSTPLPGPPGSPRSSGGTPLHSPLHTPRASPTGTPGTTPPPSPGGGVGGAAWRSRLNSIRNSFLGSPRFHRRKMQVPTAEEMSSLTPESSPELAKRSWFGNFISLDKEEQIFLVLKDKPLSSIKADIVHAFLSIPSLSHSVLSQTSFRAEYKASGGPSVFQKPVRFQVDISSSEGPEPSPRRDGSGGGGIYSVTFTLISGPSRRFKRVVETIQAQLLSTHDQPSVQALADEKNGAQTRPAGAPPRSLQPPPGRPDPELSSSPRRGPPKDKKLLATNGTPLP

DYRK1B = DYRK1B (Homo sapiens, UniProt Q9Y463); set-up: DiscoveRx KINOMEscan active site-directed competition binding; percent of control kinase bound to immobilised ligand; details: for remaining binding at 10 µM: binding competition, % of control
DYRK1B, sequence (Q9Y463 whole entry): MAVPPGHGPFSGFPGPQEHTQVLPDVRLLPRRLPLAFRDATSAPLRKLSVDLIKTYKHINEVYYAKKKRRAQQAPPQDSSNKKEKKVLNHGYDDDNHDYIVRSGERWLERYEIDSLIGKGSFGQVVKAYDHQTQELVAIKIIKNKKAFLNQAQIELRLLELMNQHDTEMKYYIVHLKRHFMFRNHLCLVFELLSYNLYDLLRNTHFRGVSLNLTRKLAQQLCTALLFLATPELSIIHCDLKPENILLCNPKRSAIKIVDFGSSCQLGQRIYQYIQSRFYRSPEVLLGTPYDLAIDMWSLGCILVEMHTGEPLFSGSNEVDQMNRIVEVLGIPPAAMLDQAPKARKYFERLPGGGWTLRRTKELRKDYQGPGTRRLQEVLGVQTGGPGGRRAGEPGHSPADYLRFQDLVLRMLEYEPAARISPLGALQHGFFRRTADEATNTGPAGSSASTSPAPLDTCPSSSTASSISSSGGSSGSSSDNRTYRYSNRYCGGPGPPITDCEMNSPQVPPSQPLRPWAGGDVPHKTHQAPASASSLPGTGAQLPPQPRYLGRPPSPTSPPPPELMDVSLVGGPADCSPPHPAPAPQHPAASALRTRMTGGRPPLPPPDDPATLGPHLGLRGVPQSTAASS
Method: (§1) The DiscoveRx KinomeScan platform (https://www.discoverx.com), utilizing an in vitro active site-directed competition binding assay, was used to quantitatively measure interactions between the four clinical PARP inhibitors and their largest available kinase panel. At the time when the assays were performed (date: 29/11/2016), 468 in vitro binding assays were available, corresponding to 392 unique human kinases (76% of the human kinome)[39] (Supplementary Table 5). To follow up the computational analysis, we performed a comprehensive in vitro kinome screen. To do this we employed the DiscoveRx (https://www.discoverx.com) KinomeScan in vitro binding technology[37],[38] that has been widely used for kinome profiling in drug discovery. At the time of conducting our screen, this kinome panel was the largest commercially available and comprised 468 in vitro binding assays corresponding to 392 unique human kinases (76% of the human kinome)[39] (Supplementary Table 5). Also included were assays comprising mutated, deleted, phosphorylated or autoinhibited forms of proteins (n = 63), secondary or pseudokinase domains (n = 8), non-human isoforms (n = 3) and CDK complexes with different cyclins (n = 2) (Supplementary Table 5). The assays were performed at a single relatively high concentration of 10 μM to identify initially both low and high potency off-targets. The results of our use of the in vitro binding assay for kinome profiling reveal marked differences between the kinase polypharmacology of PARP inhibitors. […] The binding technology used involves a competition assay, defining activity as ≥65% of the kinase being competed off an immobilised ligand at 10 μM[38].

LTK = LTK (Homo sapiens, UniProt P29376); set-up: DiscoveRx KINOMEscan active site-directed competition binding; percent of control kinase bound to immobilised ligand; details: for remaining binding at 10 µM: binding competition, % of control
LTK, sequence (P29376 whole entry): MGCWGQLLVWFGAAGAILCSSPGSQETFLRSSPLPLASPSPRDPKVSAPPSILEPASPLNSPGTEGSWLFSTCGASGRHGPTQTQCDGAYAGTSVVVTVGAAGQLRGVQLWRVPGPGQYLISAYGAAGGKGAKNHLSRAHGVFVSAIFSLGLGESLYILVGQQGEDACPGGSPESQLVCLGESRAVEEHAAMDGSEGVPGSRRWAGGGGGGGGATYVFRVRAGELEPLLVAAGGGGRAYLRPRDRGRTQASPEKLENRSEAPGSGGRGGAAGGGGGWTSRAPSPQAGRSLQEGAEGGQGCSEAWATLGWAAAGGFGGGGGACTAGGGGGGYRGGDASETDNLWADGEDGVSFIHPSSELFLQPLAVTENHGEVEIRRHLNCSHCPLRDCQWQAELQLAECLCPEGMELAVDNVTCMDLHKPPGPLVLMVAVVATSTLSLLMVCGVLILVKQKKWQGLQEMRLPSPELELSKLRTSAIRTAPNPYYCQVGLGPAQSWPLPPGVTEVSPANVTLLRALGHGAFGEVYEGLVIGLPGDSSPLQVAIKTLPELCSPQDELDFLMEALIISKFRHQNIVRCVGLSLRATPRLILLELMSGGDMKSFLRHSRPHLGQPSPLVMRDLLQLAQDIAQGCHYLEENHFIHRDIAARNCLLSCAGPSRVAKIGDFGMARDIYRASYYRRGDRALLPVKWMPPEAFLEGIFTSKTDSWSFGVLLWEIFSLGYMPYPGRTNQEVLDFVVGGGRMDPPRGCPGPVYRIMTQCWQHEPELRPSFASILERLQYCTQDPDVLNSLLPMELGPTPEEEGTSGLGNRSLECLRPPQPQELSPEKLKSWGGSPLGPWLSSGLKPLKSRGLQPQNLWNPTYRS
Method: as §1

STK33 = STK33 (Homo sapiens, UniProt Q9BYT3); set-up: DiscoveRx KINOMEscan active site-directed competition binding; percent of control kinase bound to immobilised ligand; details: for remaining binding at 10 µM: binding competition, % of control
STK33, sequence (Q9BYT3 whole entry): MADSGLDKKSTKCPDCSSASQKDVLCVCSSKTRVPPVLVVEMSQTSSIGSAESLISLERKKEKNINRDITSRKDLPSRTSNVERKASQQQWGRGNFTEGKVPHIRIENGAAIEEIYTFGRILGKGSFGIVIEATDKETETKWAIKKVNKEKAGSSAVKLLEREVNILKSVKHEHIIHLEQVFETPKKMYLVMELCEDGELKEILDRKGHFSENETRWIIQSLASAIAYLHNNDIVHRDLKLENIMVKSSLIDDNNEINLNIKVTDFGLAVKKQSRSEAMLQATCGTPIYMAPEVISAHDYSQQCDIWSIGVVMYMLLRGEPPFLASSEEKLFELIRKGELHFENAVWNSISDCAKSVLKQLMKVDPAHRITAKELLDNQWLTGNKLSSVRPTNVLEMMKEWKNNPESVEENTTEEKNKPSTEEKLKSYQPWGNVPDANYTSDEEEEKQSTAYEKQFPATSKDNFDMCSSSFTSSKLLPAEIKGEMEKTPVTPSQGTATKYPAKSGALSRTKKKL
Method: as §1

[1] = read-out: Talazoparib (BMN 673) / %Ctrl @ 10000nM
[2] = read-out: Olaparib / %Ctrl @ 10000nM
[3] = read-out: Rucaparib / %Ctrl @ 10000nM, binding competition, % of control
[4] = read-out: Rucaparib / %Ctrl @ 10000nM, binding competition
[5] = read-out: Niraparib (MK-4827) / %Ctrl @ 10000nM
[6] = read-out: Niraparib (MK-4827) / %Ctrl @ 10000nM, binding competition

CDK4-cyclinD3, sequence (P11802 whole entry): as the sequence (P11802 whole entry) above
CDK4-cyclinD3, sequence (P30281 whole entry partner): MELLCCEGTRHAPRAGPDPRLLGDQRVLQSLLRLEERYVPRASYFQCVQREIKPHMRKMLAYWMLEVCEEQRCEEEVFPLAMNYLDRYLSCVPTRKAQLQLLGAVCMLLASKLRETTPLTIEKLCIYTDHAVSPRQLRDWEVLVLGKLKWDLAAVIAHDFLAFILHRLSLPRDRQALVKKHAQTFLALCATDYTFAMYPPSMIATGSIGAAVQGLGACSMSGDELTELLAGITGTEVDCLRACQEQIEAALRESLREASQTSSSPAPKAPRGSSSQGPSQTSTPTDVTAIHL

Compound: Cn1ncnc1[C@H]1c2n[nH]c(=O)c3cc(F)cc(c23)N[C@@H]1c1ccc(F)cc1 [Talazoparib]
- percent of control binding at 10 µM (CDK4-cyclinD3; [1]): 99%
- percent of control binding at 10 µM (CDK4-cyclinD1; [1]): 70%
- percent of control binding at 10 µM (CSK; [1]): 87%
- percent of control binding at 10 µM (AMPK-alpha2; [1]): 94%
- percent of control binding at 10 µM (BRSK1; [1]): 100%
- remaining binding at 10 µM (DYRK1B; [1]): 95%
- remaining binding at 10 µM (LTK; [1]): 91%
- remaining binding at 10 µM (STK33; [1]): 99%

Compound: O=C(c1cc(Cc2n[nH]c(=O)c3ccccc23)ccc1F)N1CCN(C(=O)C2CC2)CC1 [Olaparib]
- percent of control binding at 10 µM (CDK4-cyclinD3; [2]): 95%
- percent of control binding at 10 µM (CDK4-cyclinD1; [2]): 80%
- percent of control binding at 10 µM (CSK; [2]): 99%
- percent of control binding at 10 µM (AMPK-alpha2; [2]): 93%
- percent of control binding at 10 µM (BRSK1; [2]): 91%
- remaining binding at 10 µM (DYRK1B; [2]): 97%
- remaining binding at 10 µM (LTK; [2]): 93%
- remaining binding at 10 µM (STK33; [2]): 100%

Compound: CNCc1ccc(-c2[nH]c3cc(F)cc4c3c2CCNC4=O)cc1 [Rucaparib]
- percent of control binding at 10 µM (CDK4-cyclinD3; [3]): 12%
- percent of control binding at 10 µM (CDK4-cyclinD1; [3]): 25%
- percent of control binding at 10 µM (CSK; [3]): 100%
- percent of control binding at 10 µM (AMPK-alpha2; [3]): 87%
- percent of control binding at 10 µM (BRSK1; [3]): 74%
- percent of control kinase binding at 10 µM (DYRK1B; [4]): 5.7%
- percent of control kinase binding at 10 µM (LTK; [4]): 89%
- percent of control kinase binding at 10 µM (STK33; [4]): 89%

Compound: NC(=O)c1cccc2cn(-c3ccc([C@@H]4CCCNC4)cc3)nc12 [Niraparib]
- percent of control binding at 10 µM (CDK4-cyclinD3; [5]): 38%
- percent of control binding at 10 µM (CDK4-cyclinD1; [5]): 82%
- percent of control binding at 10 µM (CSK; [5]): 90%
- percent of control binding at 10 µM (AMPK-alpha2; [5]): 89%
- percent of control binding at 10 µM (BRSK1; [5]): 92%
- percent of control kinase binding at 10 µM (DYRK1B; [6]): 0%
- percent of control kinase binding at 10 µM (LTK; [6]): 71%
